Counter-ions that a name gives are not always drawn.
Columns and labels:
[1] = biological target: baculovirus-expressed ALK (Homo sapiens, UniProt Q9UM73); assay: ALK Kinase Assay (ELISA/TRF, PLC-γ substrate); assay type: biochemical; details: read-out: ALK Kinase Inhibition (IC50); further: 1 µM ATP (Km level)
Method in brief: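 ALK at 30 ng/ml phosphorylated plate-bound PLC-γ–GST fusion (coated from 10 μg/mL) during 15 minutes at 37° C. Product was detected with Eu-N1 PT66 anti-phosphotyrosine antibody and measured by time-resolved fluorescence.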

[2] = biological target: T1, c-Met (cytoplasmic domain) (Homo sapiens, UniProt P08581); assay: c-Met Kinase Assay (ELISA/TRF, PLC-γ substrate); assay type: biochemical; details: 3 μM ATP (Km level); read-out: c-Met Kinase Inhibition (IC50)
T1 construct: Reactions were initiated with 30 ng/mL c-Met (cytoplasmic domain, Invitrogen Corporation #PV3143); purchased Invitrogen Corporation PV3143
T1 sequence (P08581 956-1390 limits assumed): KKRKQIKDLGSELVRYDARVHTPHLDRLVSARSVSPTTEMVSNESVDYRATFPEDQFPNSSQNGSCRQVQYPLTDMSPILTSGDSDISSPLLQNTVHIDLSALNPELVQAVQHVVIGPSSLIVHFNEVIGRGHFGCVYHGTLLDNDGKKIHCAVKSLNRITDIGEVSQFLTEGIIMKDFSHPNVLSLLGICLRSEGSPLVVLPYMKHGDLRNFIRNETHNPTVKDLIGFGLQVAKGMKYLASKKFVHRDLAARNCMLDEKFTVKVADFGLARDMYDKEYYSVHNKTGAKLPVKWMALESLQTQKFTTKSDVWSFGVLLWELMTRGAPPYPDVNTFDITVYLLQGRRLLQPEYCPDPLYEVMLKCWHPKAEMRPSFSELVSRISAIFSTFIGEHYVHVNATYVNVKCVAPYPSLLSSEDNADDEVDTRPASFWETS
Method in brief: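 Readout is TRF of europium anti-phosphotyrosine (PT66) bound to GST–PLC-γ substrate coated at 10 μg/mL, after a 15 min, 37 °C reaction started with 30 ng/mL c-Met cytoplasmic domain. Percent inhibition plotted against log compound concentration and fitted (variable slope) for IC50.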

Chain of baculovirus-expressed ALK (Q9UM73 19-1620): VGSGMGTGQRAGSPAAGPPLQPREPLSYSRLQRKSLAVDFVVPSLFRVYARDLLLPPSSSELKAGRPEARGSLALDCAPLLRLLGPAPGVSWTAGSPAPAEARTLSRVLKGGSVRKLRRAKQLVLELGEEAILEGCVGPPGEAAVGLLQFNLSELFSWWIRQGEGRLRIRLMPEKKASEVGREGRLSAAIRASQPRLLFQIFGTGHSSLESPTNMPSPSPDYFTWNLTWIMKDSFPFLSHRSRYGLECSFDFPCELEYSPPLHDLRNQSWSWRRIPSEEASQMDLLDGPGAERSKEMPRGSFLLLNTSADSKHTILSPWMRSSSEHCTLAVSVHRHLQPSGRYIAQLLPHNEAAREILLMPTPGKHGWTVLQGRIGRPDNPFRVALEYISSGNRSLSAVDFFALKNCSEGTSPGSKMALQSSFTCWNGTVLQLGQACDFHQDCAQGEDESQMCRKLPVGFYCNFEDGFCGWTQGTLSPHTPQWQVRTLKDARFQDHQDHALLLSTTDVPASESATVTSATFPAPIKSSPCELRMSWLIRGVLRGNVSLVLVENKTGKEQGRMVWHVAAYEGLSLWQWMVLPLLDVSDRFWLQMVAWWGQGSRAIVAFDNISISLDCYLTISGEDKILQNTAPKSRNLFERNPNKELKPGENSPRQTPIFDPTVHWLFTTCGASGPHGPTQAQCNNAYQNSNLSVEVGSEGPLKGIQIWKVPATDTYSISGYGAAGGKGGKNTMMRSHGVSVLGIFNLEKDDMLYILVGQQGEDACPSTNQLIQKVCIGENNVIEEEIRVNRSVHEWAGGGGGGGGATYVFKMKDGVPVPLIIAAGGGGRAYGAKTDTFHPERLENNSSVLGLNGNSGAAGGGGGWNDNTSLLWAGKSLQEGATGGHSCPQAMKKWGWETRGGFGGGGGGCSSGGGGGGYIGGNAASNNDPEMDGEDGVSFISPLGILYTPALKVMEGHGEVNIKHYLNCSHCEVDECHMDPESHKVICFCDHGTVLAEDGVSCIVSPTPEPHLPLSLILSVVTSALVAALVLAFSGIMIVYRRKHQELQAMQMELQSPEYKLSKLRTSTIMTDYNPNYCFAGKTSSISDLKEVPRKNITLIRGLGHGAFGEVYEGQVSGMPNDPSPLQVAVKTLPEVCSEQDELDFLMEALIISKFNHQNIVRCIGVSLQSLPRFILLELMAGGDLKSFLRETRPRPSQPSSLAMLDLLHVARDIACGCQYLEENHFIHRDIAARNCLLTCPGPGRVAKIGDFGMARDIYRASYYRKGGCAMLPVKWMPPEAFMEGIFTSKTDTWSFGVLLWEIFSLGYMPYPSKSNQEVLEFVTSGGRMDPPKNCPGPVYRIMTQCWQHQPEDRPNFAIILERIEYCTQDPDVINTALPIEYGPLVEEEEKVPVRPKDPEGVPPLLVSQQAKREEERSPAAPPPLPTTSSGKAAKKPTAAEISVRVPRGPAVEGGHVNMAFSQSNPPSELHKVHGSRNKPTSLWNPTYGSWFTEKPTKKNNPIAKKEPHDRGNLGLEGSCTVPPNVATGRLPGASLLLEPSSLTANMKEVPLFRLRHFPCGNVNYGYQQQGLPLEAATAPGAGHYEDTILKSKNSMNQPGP

Row | SMILES | melting point | IC50 [1] | IC50 [2]
1 | O=C(NCCN1CCCC1)c1ccc(-c2cnc3c(c2)N(Cc2ccccc2)C(=O)CN3)cc1 (as salt: trifluoroacetic acid salt) [Example 12, 4-(1-Benzyl-2-oxo-1,2,3,4-tetrahydropyrido[2,3-b]pyrazin-7-yl)-N-(2-pyrrolidin-1-yl-ethyl)benzamide, trifluoroacetic acid salt] | 107 °C | – | –
2 | CN(C)CCCCCCNC(=O)c1ccc(-c2cnc3c(c2)N(Cc2c(Cl)cccc2Cl)C(=O)CN3)cc1 (as salt: trifluoroacetic acid salt) [Example 143, 4-[1-(2,6-Dichlorobenzyl)-2-oxo-1,2,3,4-tetrahydropyrido[2,3-b]pyrazin-7-yl]-N-(6-dimethylaminohexyl)benzamide, trifluoroacetic acid salt] | 150 °C | – | –
3 | O=C(c1cnc2c(c1)N(Cc1cc(Cl)ccc1Cl)CCN2)N1CCN(CC2CCCCC2)CC1 [Example 262, [(4-Cyclohexylmethyl)piperazin-1-yl]-[1-(2,5-dichlorobenzyl)-1,2,3,4-tetrahydropyrido[2,3-b]pyrazin-7-yl]methanone] | – | 10 to 100 µM | > 100 µM
4 | NS(=O)(=O)c1ccc(CNC(=O)c2cnc3c(c2)N(Cc2cc(Cl)ccc2Cl)CCN3)cc1 [Example 263, 1-(2,5-Dichlorobenzyl)-1,2,3,4-tetrahydropyrido[2,3-b]pyrazine-7-carboxylic acid 4-sulfamoyl-benzylamide] | – | 1 to 10 µM | > 100 µM
5 | O=C(c1cnc2c(c1)N(Cc1cc(Cl)ccc1Cl)CCN2)N1CCCC1c1cccnc1 (stereo not drawn) [Example 264, [1-(2,5-Dichlorobenzyl)-1,2,3,4-tetrahydropyrido[2,3-b]pyrazin-7-yl]-(2-pyridin-3-yl-pyrrolidin-1-yl)methanone] | – | 1 to 10 µM | > 100 µM
6 | CN1CCN(C(=O)c2ccc(-c3cnc4c(c3)C(O)CCN4)cc2)CC1 (stereo not drawn) [Example 270, [4-(5-Hydroxy-5,6,7,8-tetrahydro-[1,8]naphthyridin-3-yl)phenyl]-(4-methyl-piperazin-1-yl)methanone] | – | > 100 µM | > 100 µM
7 | Clc1cccc(OC2CCNc3ncc(Br)cc32)c1 (stereo not drawn) [Example 271, 6-Bromo-4-(3-chlorophenoxy)-1,2,3,4-tetrahydro-[1,8]naphthyridine] | – | > 100 µM | 10 to 100 µM
8 | CN1CCN(C(=O)c2ccc(-c3cnc4c(c3)C(Oc3cc(Cl)ccc3Cl)CCN4)cc2)CC1 (stereo not drawn) [Example 272, {4-[5-(2,5-Dichlorophenoxy)-5,6,7,8-tetrahydro-[1,8]naphthyridin-3-yl]phenyl}-(4-methyl-piperazin-1-yl)methanone] | – | 0.1 to 1 µM | 1 to 10 µM
9 | CN1CCN(c2ccc(-c3cnc4c(c3)C(Oc3c(F)ccc(F)c3Cl)CCN4)cn2)CC1 (stereo not drawn) [Example 273, 4-(2-Chloro-3,6-difluorophenoxy)-6-[6-(4-methylpiperazin-1-yl)pyridin-3-yl]-1,2,3,4-tetrahydro-[1,8]naphthyridine] | – | 10 to 100 µM | 10 to 100 µM
10 | CN1CCN(C(=O)c2ccc(-c3cnc4c(c3)C(Oc3cccc(Cl)c3)CCN4)cc2)CC1 (stereo not drawn) [Example 274, {4-[5-(3-Chlorophenoxy)-5,6,7,8-tetrahydro-[1,8]naphthyridin-3-yl]-phenyl}-(4-methylpiperazin-1-yl)methanone] | – | 1 to 10 µM | 1 to 10 µM
11 | CN1CCN(C(=O)c2ccc(-c3cnc4c(c3)C(Oc3cc(Cl)cc(Cl)c3)CCN4)cc2)CC1 (stereo not drawn) [Example 275, {4-[5-(3,5-Dichlorophenoxy)-5,6,7,8-tetrahydro-[1,8]naphthyridin-3-yl]phenyl}-(4-methylpiperazin-1-yl)methanone] | – | 10 to 100 µM | 1 to 10 µM
12 | CN1CCN(C(=O)c2ccc(-c3cnc4c(c3)C(Oc3cccnc3)CCN4)cc2)CC1 (stereo not drawn) [Example 276, (4-Methylpiperazin-1-yl)-{4-[5-(pyridine-3-yloxy)-5,6,7,8-tetrahydro-[1,8]naphthyridin-3-yl]phenyl}methanone] | – | 10 to 100 µM | 10 to 100 µM
13 | CC(=O)c1ccc(F)cc1OC1CCNc2ncc(-c3ccc(C(=O)N4CCN(C)CC4)cc3)cc21 (stereo not drawn) [Example 277, 1-(4-Fluoro-2-{6-[4-(4-methylpiperazine-1-carbonyl)phenyl]-1,2,3,4-tetrahydro-[1,8]naphthyridin-4-yloxy}phenyl)ethanone] | – | 10 to 100 µM | 10 to 100 µM
14 | CN1CCN(c2cc(-c3cnc4c(c3)C(Oc3cccc(Cl)c3)CCN4)ccn2)CC1 (stereo not drawn) [Example 278, 4-(3-Chlorophenoxy)-6-[2-(4-methylpiperazin-1-yl)pyridin-4-yl]-1,2,3,4-tetrahydro-[1,8]naphthyridine] | – | 1 to 10 µM | 1 to 10 µM
15 | Clc1cccc(OC2CCNc3ncc(-c4cccc(N5CCOCC5)c4)cc32)c1 (stereo not drawn) [Example 279, 4-(3-Chlorophenoxy)-6-(3-morpholin-4-yl-phenyl)-1,2,3,4-tetrahydro-[1,8]naphthyridine] | – | 1 to 10 µM | 10 to 100 µM
16 | CN1CCN(c2ccc(-c3cnc4c(c3)C(Oc3cccc(Cl)c3)CCN4)cn2)CC1 (stereo not drawn) [Example 281, 4-(3-Chlorophenoxy)-6-[6-(4-methylpiperazin-1-yl)pyridin-3-yl]-1,2,3,4-tetrahydro-[1,8]naphthyridine] | – | 0.1 to 1 µM | 1 to 10 µM
17 | CN1CCN(c2ccc(-c3cnc4c(c3)C(Cc3cc(F)ccc3F)CCN4)cn2)CC1 (stereo not drawn) [Example 286, 4-(2,5-Difluorobenzyl)-6-[6-(4-methylpiperazin-1-yl)pyridin-3-yl]-1,2,3,4-tetrahydro-[1,8]naphthyridine] | – | 1 to 10 µM | > 100 µM
18 | FC(F)(F)c1ccc(CN2CCNc3ncc(-c4ccc(N5CCOCC5)nc4)cc32)o1 [Example 292, 7-(6-Morpholin-4-yl-pyridin-3-yl)-1-[5-(trifluoromethyl)furan-2-ylmethyl]-1,2,3,4-tetrahydropyrido[2,3-b]pyrazine] | – | 1 to 10 µM | > 100 µM
19 | CN1CCN(c2cc(-c3cnc4c(c3)N(Cc3ccc(C(F)(F)F)o3)CCN4)ccn2)CC1 [Example 293, 7-[2-(4-Methylpiperazin-1-yl)pyridin-4-yl]-1-[5-(trifluoromethyl)furan-2-ylmethyl]-1,2,3,4-tetrahydropyrido[2,3-b]pyrazine] | – | 1 to 10 µM | 1 to 10 µM
20 | O=C(O)c1ccc(-c2cnc3c(c2)N(Cc2cccnc2Cl)CCN3)cc1 [Example 302, 4-[1-(2-Chloropyridin-3-ylmethyl)-1,2,3,4-tetrahydropyrido[2,3-b]pyrazin-7-yl]benzoic acid] | – | > 100 µM | > 100 µM
21 | O=C(c1ccc(-c2cnc3c(c2)N(Cc2cccnc2Cl)CCN3)cc1)N1CCC(N2CCCC2)CC1 [Example 303, {4-[1-(2-Chloropyridin-3-ylmethyl)-1,2,3,4-tetrahydropyrido[2,3-b]pyrazin-7-yl]phenyl}-(4-pyrrolidin-1-yl-piperidin-1-yl)methanone] | – | > 100 µM | > 100 µM
22 | O=C(c1ccc(-c2cnc3c(c2)N(Cc2ccccc2OC(F)(F)F)CCN3)cc1)N1CCC(N2CCCC2)CC1 [Example 305, (4-Pyrrolidin-1-yl-piperidin-1-yl)-(4-{1-[2-(trifluoromethoxy)benzyl]-1,2,3,4-tetrahydropyrido[2,3-b]pyrazin-7-yl}phenyl)methanone] | – | < 0.1 µM | 1 to 10 µM
